{
  "source": "patent US6113907A",
  "about": "“Pharmaceutical grade St. John's Wort” (priority 1997, dated 2000)",
  "key": {"MAOA": {"target": "T1, MAOA (Rattus norvegicus, UniProt P21396)", "T1 sequence (P21396 1-526)": "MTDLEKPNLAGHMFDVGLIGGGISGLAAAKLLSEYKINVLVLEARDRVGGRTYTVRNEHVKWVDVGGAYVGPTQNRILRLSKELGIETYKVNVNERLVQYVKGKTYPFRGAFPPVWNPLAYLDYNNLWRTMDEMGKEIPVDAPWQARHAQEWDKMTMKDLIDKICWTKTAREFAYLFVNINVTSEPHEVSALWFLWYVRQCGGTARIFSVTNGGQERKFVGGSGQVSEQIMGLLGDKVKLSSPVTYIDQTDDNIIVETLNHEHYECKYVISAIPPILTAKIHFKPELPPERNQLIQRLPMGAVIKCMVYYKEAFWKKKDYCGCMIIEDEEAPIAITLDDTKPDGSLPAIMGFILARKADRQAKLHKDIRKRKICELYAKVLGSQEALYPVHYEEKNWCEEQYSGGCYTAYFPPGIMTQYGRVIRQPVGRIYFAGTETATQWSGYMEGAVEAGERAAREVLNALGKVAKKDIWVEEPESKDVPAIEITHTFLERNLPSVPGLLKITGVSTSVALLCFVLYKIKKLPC", "experiment": "NIMH/NovaScreen screen, MAOA", "format": "biochemical", "experimental": "Through an NIMH screening contract (NovaScreen™, Baltimore, Md.) a commercially available crude extract from the fresh flowers and buds of Hypericum perforatum [1:1.5; hydro-alcohol (40:60) made from flowering tops; Herb Pharm] containing ~0.1% hypericin was dried under vacuum, dissolved in 4% DMSO, and diluted to an initial concentration of 50 mg/ml for in vitro screening in a battery of 39 receptor assays and two enzyme systems (Table 5, below)."}, "GABAA receptor": {"system": "GABAA receptor", "experiment": "GABAA agonist site binding assay, [3H]-GABA, bovine cerebellar membranes", "settings": "10^-4 M", "description": "The reference literature compounds for this assay include diazepam and muscimol (Sigma Chemical Company).\nThe reaction is terminated by rapid vacuum filtration onto glass fiber filters. Radioactivity trapped onto the filters is determined and compared to control values in order to ascertain any interactions of test compound with the GABAA receptor."}},
  "data": [
    {"compound": "Cc1cc(O)c2c(=O)c3c(O)cc(O)c4c5c(O)cc(O)c6c(=O)c7c(O)cc(C)c8c1c2c(c34)c(c78)c65", "note": "[Hypericin, hypericin]", "values": [
      {"measurement": "inhibition at 10 µM", "setting": "MAOA; 10 μM", "value": 27, "unit": "%"},
      {"measurement": "inhibition at 100 µM", "setting": "MAOA; 100 μM", "value": 20.8, "unit": "%"},
      {"measurement": "MAOA inhibition", "setting": "MAOA; up to 0.1 mM", "value": "lacked significant MAOA or MAO-^B inhibition"},
      {"measurement": "GABAA % inhibition (PharmaPrint range)", "setting": "GABAA receptor", "value": "30 ± 15", "unit": "%"}
    ]}
  ]
}
